This note sets out measurements from patent publication EP0319576B1, “PROSTAGLANDIN DERIVATIVES, PROCESSES FOR PREPARING THEM AND PHARMACEUTICAL COMPOSITIONS CONTAINING SAID DERIVATIVES” (IBI- Istituto Biochimico Italiano Giovanni Lorenzini S.p.A., priority 1987, dated 1988).

One series deals with NaOH (2) 0.2 N. The series is described as follows: Cytoprotective activity in the rat, NaOH 0.2 N. The conditions noted are these: read-out: Cytoprotective activity DE50, NaOH (2) 0.2 N. It is filed as in vivo. The procedure:
(§1) iv) Cytoprotective activity in the rat
(§2) The tests were carried out according to what has been described in literature: • 1 (A.Robert et al. Gastroenterology, 77, 433 (1979)) (Table 4) • 2 (Szabo et al. Sciene 214 (200) (1981)) (Table 4)

For the next series, the system named is Ethanol (1) +NEM. The series is described as follows: Cytoprotective activity in the rat, Ethanol + NEM. The series is classed as in vivo. The settings on record: read-out: Cytoprotective activity DE50, Ethanol (1) +NEM. As to the method: as §1, §2
Another series concerns NaCl (2) 25%. In words: Cytoprotective activity in the rat, NaCl 25%. The series is classed as in vivo. The settings on record: read-out: Cytoprotective activity DE50, NaCl (2) 25%. The procedure:
as §1, §2

In series [1] the test system is Acetyl salicyl-ic acid + HCl. In words: Cytoprotective activity in the rat, acetylsalicylic acid + HCl. The conditions noted are these: read-out: Cytoprotective activity DE50, Acetyl salicyl-ic acid + HCl. The series is classed as in vivo. The procedure: as §1, §2
A further series can be described thus: Oral LD50 in the rat. The conditions noted are these: in vivo.

The structures appear in SMILES notation.

Consider `CCCCCCC1CCC2(NC(=O)NC2=O)C1CCCCCCC(=O)O` (centres unmarked) [IBI-P-01028, 5-spiro-[2-(6-carboxy-ethyl)-3-hexyl-cyclopentyl]-imidazoline-2,4-dione], for which the ED50 in the series with NaOH (2) 0.2 N was found to be 18 mg/kg; in the series on Ethanol (1) +NEM, 30 mg/kg; in the series on NaCl (2) 25%, 15 mg/kg; in series [1], 78 mg/kg. For the same compound, in the series “Oral LD50 in the rat”, the LD50 (as a rule, the dose at which mortality reaches 50%) worked out at 2000 mg/kg.
The matching figures for `CCCCCCC1CCC(N)C1CCCCCCC(OCC)OCC` (centres unmarked) [IBI-P-01053, 3-hexyl-2-(6-diethoxymethyl-hexyl)-cyclopentyl amine]: 6 mg/kg, 7 mg/kg, 17 mg/kg, 252 mg/kg and 3000 mg/kg.
Taken in the same sequence, the figures for `CCCCCCC1CCCC(N)C1CCCCCCC(=O)O` (centres unmarked) [IBI-P-05006, 3-hexyl-2-(6-carboxy-hexyl)-cyclohexyl-amine] were 9 mg/kg, 20 mg/kg, 25 mg/kg, above 200 mg/kg and 3000 mg/kg.
As for `CCCCCC1C(N)CCC1CCCCCCCCO` (centres unmarked) [IBI-P-10007, 2-pentyl-3-(8-hydroxy-octyl)-cyclopentyl amine], the ED50 in the series on NaOH (2) 0.2 N is 4 mg/kg; in the series on Ethanol (1) +NEM, 8 mg/kg; with NaCl (2) 25%, 4 mg/kg; in series [1], 165 mg/kg. The compound further displayed an LD50 in “Oral LD50 in the rat” of 3000 mg/kg.
